Experimental data from PubChem BioAssay AID200 (DTP/NCI, 2004).
“And” between values parts separate entries of the source, which are not always exact repeats. Identical values can stand only once. Inconclusive results and toxic doses are left out.

Tested on: B6C3F1 mice, B16 melanoma ip, median survival T/C
Test: NCI In Vivo Anticancer Drug Screen. Data for tumor model B16 Melanoma (intraperitoneal) in B6C3F1 mice
Conditions: endpoint: median survival time, higher = longer survival
Method in brief: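 Antitumor effect was judged in mice with transplanted tumors by dividing the treated group's survival measure by that of vehicle controls.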

[1] = dose: 100.0 mg/kg/injection, schedule: Q01DX009 (ip), vehicle: saline
[2] = dose: 200.0 mg/kg/injection, schedule: Q01DX009 (ip), vehicle: saline
[3] = dose: 100.0 mg/kg/injection, schedule: Q01DX009 (ip), vehicle: saline with Tween-80
[4] = dose: 200.0 mg/kg/injection, schedule: Q01DX009 (ip), vehicle: saline with Tween-80
[5] = dose: 100.0 mg/kg/injection, schedule: Q01DX009 (ip), vehicle: Klucel (hydroxypropylcellulose) (HPC)
[6] = dose: 200.0 mg/kg/injection, schedule: Q01DX009 (ip), vehicle: Klucel (hydroxypropylcellulose) (HPC)
[7] = dose: 400.0 mg/kg/injection, schedule: Q01DX009 (ip), vehicle: Klucel (hydroxypropylcellulose) (HPC)
[8] = dose: 50.0 mg/kg/injection, schedule: Q01DX009 (ip), vehicle: Klucel (hydroxypropylcellulose) (HPC)

With `CO[C@H]1Nc2c(ccc(C)c2O)C(=O)N2C=C(/C=C/C(N)=O)C[C@@H]12` the T/C (dose: 0.03 mg/kg/injection, schedule: Q01DX009 (ip), vehicle: saline with Tween-80) was 111 % of control, the T/C (dose: 0.05 mg/kg/injection, schedule: Q04DX003 (ip), vehicle: DMSO) was 92 % of control and the T/C (dose: 0.06 mg/kg/injection, schedule: Q01DX009 (ip), vehicle: saline with Tween-80) was 104 % of control. For the same compound, the T/C (dose: 0.1 mg/kg/injection, schedule: Q04DX003 (ip), vehicle: DMSO) was 105 % of control, the T/C (dose: 0.12 mg/kg/injection, schedule: Q01DX009 (ip), vehicle: saline with Tween-80) was 102 % of control and the T/C (dose: 0.2 mg/kg/injection, schedule: Q04DX003 (ip), vehicle: DMSO) was 109 % of control. For the same compound, the T/C (dose: 0.25 mg/kg/injection, schedule: Q01DX009 (ip), vehicle: saline with Tween-80) was 122 % of control and the T/C (dose: 0.4 mg/kg/injection, schedule: Q04DX003 (ip), vehicle: DMSO) was 104 % of control.

For `Cc1cc(O)c(Cl)cc1Cl`, the T/C [1] was 92 % of control, the T/C [2] was 87 % of control and the T/C (dose: 400.0 mg/kg/injection, schedule: Q01DX009 (ip), vehicle: saline) was 90 % of control.

With `S=C1CCCCN1` the T/C (dose: 25.0 mg/kg/injection, schedule: Q01DX009 (ip), vehicle: distilled water + alcohol) was 107 % of control, the T/C (dose: 50.0 mg/kg/injection, schedule: Q01DX009 (ip), vehicle: distilled water + alcohol) was 98 % of control and the T/C (dose: 100.0 mg/kg/injection, schedule: Q01DX009 (ip), vehicle: distilled water + alcohol) was 107 % of control. The T/C (dose: 200.0 mg/kg/injection, schedule: Q01DX009 (ip), vehicle: distilled water + alcohol) was 101 % of control.

In the case of `C=COC(=O)N(C)C`, the T/C [3] is reported as 99 % of control and the T/C [4] is reported as 97 % of control.

For `CN=C(N)N/N=C(\c1ccccc1)c1ccc(Br)cc1`, the T/C (dose: 1.5 mg/kg/injection, schedule: Q01DX009 (ip), vehicle: saline with Tween-80) was 103 % of control, the T/C (dose: 3.0 mg/kg/injection, schedule: Q01DX009 (ip), vehicle: saline with Tween-80) was 107 % of control and the T/C (dose: 6.0 mg/kg/injection, schedule: Q01DX009 (ip), vehicle: saline with Tween-80) was 97 % of control. For the same compound, the T/C (dose: 12.0 mg/kg/injection, schedule: Q01DX009 (ip), vehicle: saline with Tween-80) was 96 % of control.

For `Nc1nc(-c2cccc(S(=O)(=O)O)c2)c(Br)c(=O)[nH]1`, the T/C [3] was 118 % of control and the T/C [4] was 122 % of control.

With `O=C(O)CNC(=O)CNC(=O)CNC(=O)CNC(=O)CNC(=O)OCc1ccccc1` the T/C [5] was 111 % of control, the T/C [6] was 96 % of control and the T/C [7] was 97 % of control.

With `COc1ccc(S(=O)(=O)N/N=C/C(=O)O)cc1` the T/C (dose: 6.25 mg/kg/injection, schedule: Q01DX009 (ip), vehicle: saline with Tween-80) was 101 % of control and 104 % of control, the T/C (dose: 12.5 mg/kg/injection, schedule: Q01DX009 (ip), vehicle: saline with Tween-80) was 116 % of control and 120 % of control and the T/C (dose: 50.0 mg/kg/injection, schedule: Q01DX009 (ip), vehicle: saline with Tween-80) was 119 % of control.

`COC1C(OC(=O)/C=C/C=C/C=C/C=C/C(=O)O)CCC2(CO2)C1C1(C)OC1CC=C(C)C` (configuration not stated) was tested, and the T/C (dose: 25.0 mg/kg/injection, schedule: Q01DX009 (ip), vehicle: saline) was 117 % of control, the T/C (dose: 50.0 mg/kg/injection, schedule: Q01DX009 (ip), vehicle: saline) was 113 % of control and the T/C [1] was 119 % of control. For the same compound, the T/C [2] was 113 % of control.

For `O=c1[nH]c(=O)n(C2CC(O)C(CO)O2)cc1Br` (configuration not stated), the T/C (dose: 25.0 mg/kg/injection, schedule: Q01DX009 (ip), vehicle: Klucel (hydroxypropylcellulose) (HPC)) was 92 % of control, the T/C [8] was 110 % of control and the T/C [5] was 110 % of control. The T/C [6] was 116 % of control, the T/C [7] was 114 % of control and the T/C (dose: 800.0 mg/kg/injection, schedule: Q01DX009 (ip), vehicle: Klucel (hydroxypropylcellulose) (HPC)) was 109 % of control.

`O=S1(=O)CS(=O)(=O)OCCO1` was tested, and the T/C (dose: 6.25 mg/kg/injection, schedule: Q01DX009 (ip), vehicle: Klucel (hydroxypropylcellulose) (HPC)) was 111 % of control, the T/C (dose: 12.5 mg/kg/injection, schedule: Q01DX009 (ip), vehicle: Klucel (hydroxypropylcellulose) (HPC)) was 153 % of control and 161 % of control and the T/C [8] was 117 % of control.
